For series [1] the following is noted: cartilage; literature; cited from earlier work.
The target in series [2] is T1, ECE-1 (Bos taurus, UniProt P42891).
T1 construct: made in house
T1 sequence (P42891 1-754): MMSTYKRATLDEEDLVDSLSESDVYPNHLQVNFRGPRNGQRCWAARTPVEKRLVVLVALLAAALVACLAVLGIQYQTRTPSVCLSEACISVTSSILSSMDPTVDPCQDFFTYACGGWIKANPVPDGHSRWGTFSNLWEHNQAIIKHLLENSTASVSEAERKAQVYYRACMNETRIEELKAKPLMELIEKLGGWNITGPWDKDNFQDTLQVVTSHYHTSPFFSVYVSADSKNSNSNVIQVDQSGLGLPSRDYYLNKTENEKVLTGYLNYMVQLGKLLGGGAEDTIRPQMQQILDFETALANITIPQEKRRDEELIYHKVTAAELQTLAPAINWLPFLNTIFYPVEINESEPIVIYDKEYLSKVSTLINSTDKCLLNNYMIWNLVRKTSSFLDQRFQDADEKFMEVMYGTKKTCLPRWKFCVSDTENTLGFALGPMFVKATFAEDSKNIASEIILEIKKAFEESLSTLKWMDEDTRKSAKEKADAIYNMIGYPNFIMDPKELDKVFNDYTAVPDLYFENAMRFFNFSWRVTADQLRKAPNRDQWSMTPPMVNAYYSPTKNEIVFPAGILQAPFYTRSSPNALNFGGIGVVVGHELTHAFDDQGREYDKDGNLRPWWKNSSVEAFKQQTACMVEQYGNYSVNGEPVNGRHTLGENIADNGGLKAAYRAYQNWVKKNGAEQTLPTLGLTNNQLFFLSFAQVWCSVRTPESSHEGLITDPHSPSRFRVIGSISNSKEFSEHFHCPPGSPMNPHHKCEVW
Kind of series: Substrate kinetics and isopeptide substrate selectivity of ECE-1. Conditions: big ET-1 0.01-10 μM; 20 μg crude membrane proteins, 30 min; read-out: apparent Km of ECE-1. It counts as biochemical, bovine.
Method: Solubilized crude membranes were prepared in parallel from CHO/ECE-2 and CHO/ECE-1 cells as described (Xu et al., 1994). For protease inhibitor studies, membranes were prepared without protease inhibitors. Standard reaction mixtures for the ECE-2 assay (50 μl) contained 0.1M 2-[N-morpholino]ethanesulfonic acid (MES) buffer (pH 5.5), 0.5M NaCl, 0.1 μM human big ET-1 and an enzyme fraction. ECE-1 assay reactions contained 0.1M phosphate buffer (pH 6.8) instead of the MES buffer. For the pH profiling and isopeptide selectivity studies, the buffer solution (0.1M) or the substrate (0.1 μM) was substituted as designated. For the inhibitor studies, the reactions were preincubated at 37° C. with protease inhibitor or vehicle for 15 min. Reactions were started by the addition of substrate, and incubated at 37° C. for 30 min in siliconized 0.5-ml microcentrifuge tubes. […] The mixture was then directly assayed for mature ET-1 as described (Suzuki et al., 1989). Duplicate assay wells were used for each enzyme reaction. For big ET-2 and big ET-3 conversion assays, mature ET-1 EIA (which fully cross-reacts with mature ET-2) and mature ET-3 EIA were used with human ET-2 and ET-3 as standards, respectively (Matsumoto et al., 1989). Protein concentrations were determined by the Bradford method (Bio-Rad) using IgG as standard.

The target in series [3] is T2, ECE-2 (Bos taurus, UniProt P0DPE2).
T2 construct: solubilized crude membranes or live cells
Kind of series: Substrate kinetics and isopeptide substrate selectivity of ECE-2. It counts as biochemical, bovine.
Method: Isopeptide substrate selectivity of ECE-2. Substrates are: closed circles, big ET-1 (1-38); closed squares, big ET-2 (1-38); and closed triangles, big ET-3 (1-41 Amide). Activity is reported as conversion (fmol/30 min) vs μg of membrane protein.
Solubilized crude membranes were prepared in parallel from CHO/ECE-2 and CHO/ECE-1 cells as described (Xu et al., 1994). […] Standard reaction mixtures for the ECE-2 assay (50 μl) contained 0.1M 2-[N-morpholino]ethanesulfonic acid (MES) buffer (pH 5.5), 0.5M NaCl, 0.1 μM human big ET-1 and an enzyme fraction. […] For the pH profiling and isopeptide selectivity studies, the buffer solution (0.1M) or the substrate (0.1 μM) was substituted as designated. […] Reactions were started by the addition of substrate, and incubated at 37° C. for 30 min in siliconized 0.5-ml microcentrifuge tubes. […] The mixture was then directly assayed for mature ET-1 as described (Suzuki et al., 1989). Duplicate assay wells were used for each enzyme reaction. For big ET-2 and big ET-3 conversion assays, mature ET-1 EIA (which fully cross-reacts with mature ET-2) and mature ET-3 EIA were used with human ET-2 and ET-3 as standards, respectively (Matsumoto et al., 1989). Protein concentrations were determined by the Bradford method (Bio-Rad) using IgG as standard.

The nature of series [4]: Stability of big and mature endothelin isopeptides with crude membrane proteins, ECE-2 assay conditions (pH 5.6). It counts as physicochemical.
For series [5], the target named is T1, ECE-1. Kind of series: Protease inhibitor assay of ECE-1, solubilized CHO/ECE-1 membranes, big ET-1 conversion, pH 6.8. The format is biochemical, bovine. The following applies: for inhibition of ECE-1: sensitivity to protease inhibitors, Table 2.
Method: Solubilized crude membranes were prepared in parallel from CHO/ECE-2 and CHO/ECE-1 cells as described (Xu et al., 1994). For protease inhibitor studies, membranes were prepared without protease inhibitors. Standard reaction mixtures for the ECE-2 assay (50 μl) contained 0.1M 2-[N-morpholino]ethanesulfonic acid (MES) buffer (pH 5.5), 0.5M NaCl, 0.1 μM human big ET-1 and an enzyme fraction. ECE-1 assay reactions contained 0.1M phosphate buffer (pH 6.8) instead of the MES buffer. For the pH profiling and isopeptide selectivity studies, the buffer solution (0.1M) or the substrate (0.1 μM) was substituted as designated. For the inhibitor studies, the reactions were preincubated at 37° C. with protease inhibitor or vehicle for 15 min. Reactions were started by the addition of substrate, and incubated at 37° C. for 30 min in siliconized 0.5-ml microcentrifuge tubes. […] The mixture was then directly assayed for mature ET-1 as described (Suzuki et al., 1989). Duplicate assay wells were used for each enzyme reaction. […] Protein concentrations were determined by the Bradford method (Bio-Rad) using IgG as standard.
The target of series [6] is T2, ECE-2. Kind of series: Protease inhibitor assay of ECE-2, solubilized CHO/ECE-2 membranes, big ET-1 conversion, pH 5.5. It counts as biochemical, bovine. Conditions: for IC50: pH 5.5.
Method: Solubilized crude membranes were prepared in parallel from CHO/ECE-2 and CHO/ECE-1 cells as described (Xu et al., 1994). For protease inhibitor studies, membranes were prepared without protease inhibitors. Standard reaction mixtures for the ECE-2 assay (50 μl) contained 0.1M 2-[N-morpholino]ethanesulfonic acid (MES) buffer (pH 5.5), 0.5M NaCl, 0.1 μM human big ET-1 and an enzyme fraction. […] For the inhibitor studies, the reactions were preincubated at 37° C. with protease inhibitor or vehicle for 15 min. Reactions were started by the addition of substrate, and incubated at 37° C. for 30 min in siliconized 0.5-ml microcentrifuge tubes. […] The mixture was then directly assayed for mature ET-1 as described (Suzuki et al., 1989). Duplicate assay wells were used for each enzyme reaction.
Series [7] has as its target T2, ECE-2. Kind of series: Double-transfection live cell assay: mature ET-1 secretion by CHO/ECE-2 cells transfected with preproET-1 cDNA. It counts as cell-based, bovine.
Method: Production of mature ET-1 by CHO/ECE-2 cells transiently transfected with preproET-1 cDNA: Cleavage of endogenously produced big ET-1. Doubly transfected cells were cultured for 12 h in the absence or presence of the designated concentrations of ECE inhibitors, and mature ET-1 in the conditioned medium was determined. Negative control studies with parental CHO cells are shown by dashed lines.
CHO/ECE-2 cells and untransfected CHO cells were transiently transfected in parallel with a preproET-1 construct, and mature ET-1 secreted from these cells into the medium was determined by EIA.
CHO-K1 cells were cultured as described (Xu et al., 1994). Since many batches of tissue culture-grade trypsin preparations contained high levels of metalloprotease contaminants with an ECE-like activity, a highly purified crystallized preparation of trypsin (Sigma, Catalog No. T7418) was dissolved in phosphate-buffered saline at 0.013% (w/v) and used for all trypsinization procedures. […] Twelve hours after the transient transfection, cells were refed with fresh medium with or without ECE inhibitors. The medium was conditioned for an additional 12 h and directly subjected to enzyme immunoassay (EIA) for mature ET-1 (Suzuki et al., 1989).
Series [8] has as its target T1, ECE-1. The following applies: high concentrations; Xu et al., 1994; cited from earlier work.
The test system of series [9] is cultured endothelial cells. The following applies: cited from earlier work.
In another series the test system is big endothelins. The following applies: whole animal preparations and isolated perfused tissues; cited from earlier work.
Series [10] relates to this family of metalloproteases. Conditions: Opgenorth et al., 1992; cited from earlier work.
The target in series [11] is T1, ECE-1. Kind of series: Coculture of CHO/ECE-1 and CHO/preproET-1 cells: cleavage of exogenously supplied big ET-1. The format is cell-based, bovine.
Method: (§1) Production of mature ET-1 by CHO/ECE-1-CHO/preproET-1 and CHO/ECE-2-CHO/preproET-1 cocultures: Cleavage of exogenously supplied big ET-1. […] Negative control experiments were performed by coculturing parental CHO cells with CHO/preproET-1 cells. Open circles, CHO/ET-1+CHO/ECE-1 (Phos); closed circles, CHO/ET-1+CHO/ECE-1 (FR); open squares, CHO/ET-1+CHO/ECE-2 (Phos); closed squares, CHO/ET-1+CHO/ECE-2 (FR); open triangles, CHO/ET-1+CHO-K1 (Phos).
(§2) This was tested by coculturing the stable transfectant CHO/preproET-1 cells with either CHO/ECE-1 or CHO/ECE-2 cells, and determining the amount of mature ET-1 in the medium.
Series [12] addresses T2, ECE-2. Kind of series: Coculture of CHO/ECE-2 and CHO/preproET-1 cells: cleavage of exogenously supplied big ET-1. The following applies: up to 100 μM. It counts as cell-based, bovine.
Method: as §1, §2
For series [13], the system named is big ET-1. Kind of series: pH profile of ECE activity. The format is biochemical, human. As for the experimental part:
FIG. 1B. pH profile of ECE-2. […] Buffers are: open squares, acetate; closed squares, MES; open circles, phosphate; closed circles, Tris; open triangles, glycine.
FIG. 1B is a pH profile of ECE-2. Optimal activity of ECE-2 is at pH 5.5 in contrast to the previously discovered ECE-1, which has optimal activity at pH 6.8. […] In all subsequent studies, ECE-2 assays were performed at pH 5.5. […] A majority of the ECE-2 activity in the CHO/ECE-2 cell homogenates was found in the membrane fraction. No significant ECE-2 activity was detected in the culture supernatants from CHO/ECE-2 cells.
Solubilized crude membranes were prepared in parallel from CHO/ECE-2 and CHO/ECE-1 cells as described (Xu et al., 1994). For protease inhibitor studies, membranes were prepared without protease inhibitors. Standard reaction mixtures for the ECE-2 assay (50 μl) contained 0.1M 2-[N-morpholino]ethanesulfonic acid (MES) buffer (pH 5.5), 0.5M NaCl, 0.1 μM human big ET-1 and an enzyme fraction. ECE-1 assay reactions contained 0.1M phosphate buffer (pH 6.8) instead of the MES buffer. For the pH profiling and isopeptide selectivity studies, the buffer solution (0.1M) or the substrate (0.1 μM) was substituted as designated. […] Protein concentrations were determined by the Bradford method (Bio-Rad) using IgG as standard.

The subject of series [14] is big ET-1. Conditions: cited from earlier work.

The values that follow come from patent publication US5736376A, “Recombinant endothelin converting enzyme-2 and its use in ECE inhibitor screening” (Board of Regents, The University of Texas System, priority 1995, dated 1998).

“Also recorded” adds a separate entry of the source. Read-outs that look alike come from different tables or passages of the source. Where no end group is shown, it is not given here.

T2 sequence (P0DPE2 97-883): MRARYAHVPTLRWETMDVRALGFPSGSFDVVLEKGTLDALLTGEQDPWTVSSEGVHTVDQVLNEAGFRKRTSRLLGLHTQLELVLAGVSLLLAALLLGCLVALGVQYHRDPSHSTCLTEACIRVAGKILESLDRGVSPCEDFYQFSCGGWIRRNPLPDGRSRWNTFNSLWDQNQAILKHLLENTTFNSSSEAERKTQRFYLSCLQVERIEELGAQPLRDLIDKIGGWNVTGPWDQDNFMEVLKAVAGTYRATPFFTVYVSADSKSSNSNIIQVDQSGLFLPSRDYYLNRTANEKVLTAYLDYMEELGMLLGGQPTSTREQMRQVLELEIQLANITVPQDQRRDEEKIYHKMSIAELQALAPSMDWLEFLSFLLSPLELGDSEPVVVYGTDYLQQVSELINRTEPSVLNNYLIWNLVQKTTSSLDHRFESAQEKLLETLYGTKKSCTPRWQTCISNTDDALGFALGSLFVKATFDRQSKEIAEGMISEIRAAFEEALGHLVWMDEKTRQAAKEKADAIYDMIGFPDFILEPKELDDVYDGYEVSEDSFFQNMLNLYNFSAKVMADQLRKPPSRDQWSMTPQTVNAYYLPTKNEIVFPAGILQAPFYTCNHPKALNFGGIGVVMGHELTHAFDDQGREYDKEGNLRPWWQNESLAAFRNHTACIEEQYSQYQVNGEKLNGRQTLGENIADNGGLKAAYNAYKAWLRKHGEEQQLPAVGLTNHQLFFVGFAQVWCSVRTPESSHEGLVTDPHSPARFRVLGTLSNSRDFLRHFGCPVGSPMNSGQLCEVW

On to “matrix metalloproteinase-3: matrix metalloprotease in cartilage, matrix metalloproteinase-3 (MMP-3; stromelysin-1)”, for which, in series [1], the pH optimum is 5.3-5.5.

Consider “big ET-1: Synthetic human big ET-1[1-38] (CSCSSLMDKECVYFCHLDIIWVNTPEHVVPYGLGSPRS; ends and bridges not checked; cysteine pairing not given here; UniProt P05305 53-90, looked up)”, for which the Km (usually the substrate concentration at which the rate is half of its maximum) with ECE-1 [2] is 1 to 2 µM; in the series with ECE-2 [3] (big ET-1 0.01-10 μM, 20 μg crude membrane proteins, 30 min, read-out: apparent Km of ECE-2), 1 to 2 µM. Besides, in the series with ECE-2 [3] (20-40 μg membrane proteins, optimal pH), the “relative rate of cleavage by ECE-2” value is 100%. The “rate of degradation among isopeptides” value in series [4] is “degraded at similar rates”.

With `CC(C)C[C@H](NP(=O)(O)O[C@@H]1O[C@@H](C)[C@H](O)[C@@H](O)[C@H]1O)C(=O)N[C@@H](Cc1c[nH]c2ccccc12)C(=O)O` [Phosphoramidon], at ECE-1 [5], the “inhibition of ECE-1” value is “inhibited”. The IC50 against ECE-2 [6] (in vitro (test tube)) was 4 nM; at ECE-2 [7] (production of mature ET-1, 12 h, ECE-2-preproET-1 double transfected cells, read-out: apparent IC50, live cell assay, CHO/ECE-2) it was roughly 20000 nM. For the same molecule, at ECE-1 [8], the “inhibition of big ET-1 conversion in ECE-1/preproET-1 doubly transfected cells” value is “capable of inhibiting the conversion of big ET-1”. Besides, the “inhibition of secretion of mature ET-1 / processing of endogenous big ET-1 (words)” value in [9] is “inhibit the secretion of mature ET-1”; in series [9] (listed as phosphoramidon) it was “inhibited”. Besides, the “inhibition of vasopressor actions of exogenous big endothelins” value in the series on big endothelins was “inhibited”. Moreover, the type of inhibition result in series [10] is given as “competitive inhibitor”.

In the case of `COc1c2c(c(O)c3c1C(O)Cc1cc(CC(C)O)c(C(=O)O)c(O)c1-3)C(=O)c1cccc(O)c1C2=O` (stereo not drawn) [FR901533, 1,6,9,14-tetrahydroxy-3-(2-hydroxypropyl)-7-methoxy-8,13-dioxo-5,6,8,13-tetrahydro-benzo[α]naphthacene-2-carboxylate .cndot. Na], the IC50 on ECE-1 [5] (in vitro, pH 6.8) is 2000 nM; against ECE-2 [6] (in vitro) it was 3000 nM; against ECE-1 [11], roughly 1000 nM. Besides, the “inhibition of ECE-1” value against ECE-1 [5] was “inhibited”. Moreover, on ECE-2 [6] (in vitro sensitivity to inhibitors), the “inhibition of ECE-2” value is “inhibited; also recorded: efficiently inhibits the conversion of big ET-1 by ECE-2 in vitro”. Also, the “inhibition of conversion in transfected CHO/ECE-2 cells” value at ECE-2 [7] (added to medium at up to 1 mM) is recorded as “did not appreciably inhibit the conversion”. The “inhibition of mature peptide production, CHO/ECE-2 coculture” value against ECE-2 [12] is recorded as “not inhibited”.

B1: ECE-2: novel membrane-bound metalloprotease; 787-amino-acid polypeptide, SEQ ID NO:2 (protein)
chain: MRARYAHVPTLRWETMDVRALGFPSGSFDVVLEKGTLDALLTGEQDPWTVSSEGVHTVDQVLNEAGFRKRTSRLLGLHTQLELVLAGVSLLLAALLLGCLVALGVQYHRDPSHSTCLTEACIRVAGKILESLDRGVSPCEDFYQFSCGGWIRRNPLPDGRSRWNNSNSLWDQNQAILKHLLENTTFNSSSEAERKTQRFYLSCLQVERIEELGAHALRDLIDKIGGWNVTGPWDQDNFMEVLKAVAGTYRATPFFTVYVSADSKSSNSNIIQVDQSGLFLPSRDYYLNRTANEKVLTAYLDYMEELGMLLGGQPTSTREQMRQVLELEIQLANITVPQDQRRDEEKIYHKMSIAELQALAPSMDWLEFLSFLLSPLELGDSEPVVVYGTDYLQQVSELINRTEPSVLNNYLIWNLVQKTTSSLDHRFESAQEKLLETLYGTKKSCTPRWQTCISNTDDALGFALGSLFVKATFDRQSKEIAEGMISEIRVAFEEALGHLVWMDEKTRQAAKEKADAIYDMIGFPDFILEPKELDDVYDGYEVSEDSFFQNMLNLYNFSAKVMADQLRKPPSRDQWSMTPQTVNAYYLPTKNEIVFPAGILQAPFYTCNHPQALNFGGIGVVMGHELTHAFDDQGREYDKEGNLRPWWQNESLAAFRNHTACIEEQYSQYQVNGEKLNGRQTLGENIADNGGLKAAYNAYKAWLRKHGEEQQLPAVGLTNHQLFFVGFAQVWCSVRTPESSHEGLVTDPHSPARFRVLGTLSNSRDFLRHFGCPVGSPMNSGQLCEVW
B1: the “total endothelin peptides converted to mature ET-1” value in the series with ECE-2 [7] (double-transfection assays) was “up to 40%”. In the series with big ET-1 [13] (conversion of big ET-1), the “pH of optimal activity” value worked out at 5.5. The “activity at neutral pH (6.8)” value with big ET-1 [13] (standard ECE-1 assay) is “virtually inactive”.

B2: ECE-1: type II membrane-bound metalloprotease that processed endogenously produced big ET-1 (protein, UniProt P42892 1-770, looked up)
Endothelin-converting enzyme 1: MRGVWPPPVSALLSALGMSTYKRATLDEEDLVDSLSEGDAYPNGLQVNFHSPRSGQRCWAARTQVEKRLVVLVVLLAAGLVACLAALGIQYQTRSPSVCLSEACVSVTSSILSSMDPTVDPCHDFFSYACGGWIKANPVPDGHSRWGTFSNLWEHNQAIIKHLLENSTASVSEAERKAQVYYRACMNETRIEELRAKPLMELIERLGGWNITGPWAKDNFQDTLQVVTAHYRTSPFFSVYVSADSKNSNSNVIQVDQSGLGLPSRDYYLNKTENEKVLTGYLNYMVQLGKLLGGGDEEAIRPQMQQILDFETALANITIPQEKRRDEELIYHKVTAAELQTLAPAINWLPFLNTIFYPVEINESEPIVVYDKEYLEQISTLINTTDRCLLNNYMIWNLVRKTSSFLDQRFQDADEKFMEVMYGTKKTCLPRWKFCVSDTENNLGFALGPMFVKATFAEDSKSIATEIILEIKKAFEESLSTLKWMDEETRKSAKEKADAIYNMIGYPNFIMDPKELDKVFNDYTAVPDLYFENAMRFFNFSWRVTADQLRKAPNRDQWSMTPPMVNAYYSPTKNEIVFPAGILQAPFYTRSSPKALNFGGIGVVVGHELTHAFDDQGREYDKDGNLRPWWKNSSVEAFKRQTECMVEQYSNYSVNGEPVNGRHTLGENIADNGGLKAAYRAYQNWVKKNGAEHSLPTLGLTNNQLFFLGFAQVWCSVRTPESSHEGLITDPHSPSRFRVIGSLSNSKEFSEHFRCPPGSPMNPPHKCEVW
As to B2, the “pH optimum of previously discovered ECE-1” value in the series on big ET-1 [14] is listed as 6.8.
